According to paper PMC7023222, “Ionic Liquid Forms of the Antimalarial Lumefantrine in Combination with LFCS Type IIIB Lipid-Based Formulations Preferentially Increase Lipid Solubility, In Vitro Solubilization Behavior and In Vivo Exposure” (Pharmaceutics, 2019):
Values joined by “and” are separate entries in the source; they are usually repeats but may differ in a detail not shown here. Equal values may be shown once. Read-outs that look alike come from different tables or passages of the source.

Assays:
[1] = Description: Equilibrium Solubility Studies. […] Each equilibrium solubility experiment was completed in triplicate. Equilibrium solubility was defined when solubility measured across two consecutive days varied less than 5%. The samples were allowed to equilibrate at 37 °C and were vortex-mixed twice a day to ensure the compounds were well dispersed in the LBF. The samples were left to equilibrate for at least 3 days. […] At each time point, samples were then centrifuged at 37 °C (14,800 rpm (21,000× g), Thermo Scientific, Heraeus Pico 21 Centrifuge) and aliquots of 20 mg were taken from the supernatant and dissolved in 1 mL of chloroform: methanol (2:1, v/v). The chloroform: methanol solution was then diluted 20-fold with water: acetonitrile (1:1, v/v). The samples were then assayed by HPLC to determine the concentration of compound in formulation.
[2] = Oral bioavailability study in rats; assay type: in vivo, male Sprague-Dawley rats
[3] = In vitro dispersion and digestion test of LBFs (drug solubilization); assay type: physicochemical; details: for % of drug present in the aqueous phase compared to total drug loading: end of digestion phase (60 min), loading 80% of equilibrium solubility, n = 3
Description: In Vitro Drug Solubilization. […] Drug loading in each formulation was at 80% of the equilibrium solubility of the drug or API-IL in that formulation to maintain a consistent thermodynamic activity across all LBFs. In vitro dispersion and digestion experiments were conducted using a pH-stat apparatus (Metrohm® AG, Herisau, Switzerland), which comprised a Titrando 802 propeller stirrer/804 Ti Stand combination, a glass pH electrode (iUnitrode), and two 800 Dosino dosing units coupled to 10 mL autoburettes (Metrohm® AG). The pH-stat was connected to a PC and operated via Tiamo 2.0 software (Metrohm®). […] The pancreatic enzyme was prepared by mixing 1 g of porcine pancreatin with 5 mL of lipolysis buffer and 20 µL of 5 M NaOH. After mixing, this was then centrifuged at 2880× g at 5 °C for 10 min (Crown Scientific, Eppendorf AG Centrifuge 5804 R, Sydney Australia) and the supernatant used as the enzyme solution. The lipolysis buffer was prepared by dissolving 0.474 g of tris maleate, 0.206 g of CaCl2·H2O, and 8.775 g of NaCl in one liter of distilled water to form a 2 mM tris maleate 1.4 mM CaCl2·H2O 150 mM NaCl buffer; the pH was adjusted to 6.5 using NaOH. The micellar solution was prepared by dissolving 0.783 g of NaTDC and 0.291 g of PC in 500 mL of lipolysis buffer to form a 3 mM NaTDC 0.75 mM PC solution. […] This drop in pH was detected by the pH-stat controller, which then titrated the FA produced using an autoburette that added NaOH to keep the pH at a set point (0.6 M NaOH for MCFs, and 0.2 M NaOH for LCFs). By knowing the quantity of NaOH added and assuming stoichiometric titration, this indirectly quantified the extent of FA production (as a measure of digestion). […] The mass of the drug recovered in the aqueous phase and the pellet phase was then quantified by HPLC [35, 36]. The supernatant and pellet samples were diluted with acetonitrile (1:10 v/v) and then mobile phase (1:10 v/v), and lumefantrine concentrations in the samples determined using HPLC [35, 36, 37, 38].

[4] = Supersaturation during in vitro dispersion/digestion testing; assay type: physicochemical; details: for maximum supersaturation ratio SR^Mdisp (APmax/APdigest): dispersion, time 0 min; for maximum supersaturation ratio SR^Mdig (APmax/APdigest): end of digestion, 60 min
Description: Supersaturation During In Vitro Testing. The degree of supersaturation of drug concentrations in the aqueous phase during formulation dispersion/digestion was assessed by comparing the measured aqueous phase concentration to equilibrium drug solubility in blank aqueous phase obtained by dispersion and digestion of blank (i.e., non-drug loaded) formulation under identical conditions. Due to the physical state of lumefantrine docusate (i.e., an amorphous semi-solid), the equilibrium solubility assessment was conducted by dissolving 3 mg of IL in 10 µL of ethanol in a microcentrifuge tube and then adding 200 mg of aqueous phase obtained from the blank digestions (n = 3 for each time point for each formulation). The contents were subsequently vortex-mixed for 30 s. […] Supersaturation was assessed at 4 time points during the in vitro dispersion and digestion tests (0 min (end dispersion), and 5, 30, and 60 min (post digestion)) for the Type II-MC, IIIB-MC, IIIB-LC, and IV formulations.
The supersaturation ratio (SR) provides an indication of thermodynamic activity and the likelihood of either drug precipitation, or enhanced absorption from an LBF, where the higher the number, the more supersaturated and therefore the more likely to precipitate during in vitro digestion. The maximum supersaturation ratio (SR^M) provides a measure of the maximum supersaturation pressure that would be generated by digestion of an LBF, assuming no precipitation and is calculated from the following:(1) SR^M=APmax/APdigest where APmax is the maximum possible aqueous phase concentration of drug during the in vitro dispersion and digestion test (i.e., in the absence of any precipitation), and APdigest is the equilibrium solubility of the drug in blank aqueous phase (i.e., where the aqueous phase was obtained from a digestion of blank LBF). Williams et al. have previously proposed that sustainable supersaturation most commonly occurs when SR^M < 3, and that exceeding this threshold increases the likelihood of drug precipitation during in vitro dispersion and digestion tests. Only the Type II-MC, IIIB-MC, IIIB-LC, and IV formulations were evaluated as these were the four formulations chosen to proceed to the in vivo bioavailability studies. The figures also depict APmax, as well as the drug solubility in the aqueous colloidal phase of the blank LBF (APdigest). […] This was most apparent at early time points for the Type II-MCF formulation where SR^M was ~20 and at later time points post digestion for the Type IIIB-MCF where SR^M was >40. […] Similarly, the SR^M for the Type IIIB-MCF at the end of digestion was the highest, but majority of lumefantrine docusate remained solubilized at 60 min (69% solubilized).

[5] = set-up: method as in PMID 30376336; details: cited from earlier work
[6] = set-up: method as in PMID 23531442; details: cited from earlier work
[7] = cited from earlier work

## CCCCC(CC)COC(=O)CC(C(=O)OCC(CC)CCCC)S(=O)(=O)O.CCCCN(CCCC)CC(O)c1cc(Cl)cc2c1-c1ccc(Cl)cc1C2=Cc1ccc(Cl)cc1 (racemic) [lumefantrine docusate]
[1]
  miscibility in the Type IV formulation: miscible
  solubility in LBF, fold higher than lumefantrine free base: 2- to 80 fold
  solubility in the Type IV formulation (proportions): > 1:1 w/w
[2]; IL in LBF vs free base suspensions 85 mg/kg
  exposure, fold enhanced when compared to the free base: up to 50 fold
[2]; Type IIIB LC formulation 65 mg/kg vs aqueous suspension 85 mg/kg
  increase in exposure after oral administration compared to aqueous suspension of the free base: ~ 50 fold
[2]; Type IIIB LC formulation 65 mg/kg vs free base suspension in Type IIIB-LCF 85 mg/kg
  increase in exposure after oral administration compared to lipid suspension of the free base: ~ 10 fold
[2]; Type IIIB-LCF 65 mg/kg, one-way ANOVA, p < 0.05, n = 4
  systemic exposure (AUC 0 to 24 h), statistical comparison: significantly higher exposure than all other formulations tested
[2]; Type IIIB-MCF 65 mg/kg, one-way ANOVA, p < 0.05, n = 4
  systemic exposure (AUC 0 to 24 h), statistical comparison with both free base suspensions: significantly higher exposure
[3]; Type IIIB-LCF
  % of drug present in the aqueous phase compared to total drug loading: 89%
[3]; Type IIIB-MCF
  % of drug present in the aqueous phase compared to total drug loading: 69%
[3]; after dispersion and digestion, range over all LBFs
  drug concentration in the aqueous phase, fold higher than the equivalent lumefantrine free base formulations: 2-to-55 fold
[4]; Type II-MCF
  maximum supersaturation ratio SR^Mdisp (APmax/APdigest): ~ 20 and 19.9
  maximum supersaturation ratio SR^Mdig (APmax/APdigest): 8.0
[4]; Type II-MCF, during dispersion
  supersaturation ratio SR (measured aqueous phase concentration / equilibrium solubility in blank aqueous phase): 5.5
[4]; Type IIIB-LCF
  maximum supersaturation ratio SR^Mdisp (APmax/APdigest): 3.6
  maximum supersaturation ratio SR^Mdig (APmax/APdigest): 7.9
[4]; Type IIIB-MCF
  maximum supersaturation ratio SR^Mdisp (APmax/APdigest): 5.7
  maximum supersaturation ratio SR^Mdig (APmax/APdigest): > 40 and 43.2
[4]; Type IV formulation
  supersaturation throughout the in vitro test: no supersaturation was evident
[4]; Type IV
  maximum supersaturation ratio SR^Mdisp (APmax/APdigest): 6.3
  maximum supersaturation ratio SR^Mdig (APmax/APdigest): 8.1
[4]; in all cases: Type II-MC, IIIB-MC, IIIB-LC and IV formulations
  maximum supersaturation ratio SR^M: higher than 3

## CCCCC(CC)COC(=O)CC(C(=O)OCC(CC)CCCC)S(=O)(=O)O.COc1cc2nccc(Oc3ccc(NC(=O)C4(C(=O)Nc5ccc(F)cc5)CC4)cc3)c2cc1OC [Cabozantinib docusate, cabozantinib docusate]
[5]; long-chain SEDDS
  bioavailability, fold enhanced compared to an aqueous suspension of cabozantinib free base: 1.8 fold
[5]; medium-chain SEDDS
  bioavailability, fold enhanced compared to an aqueous suspension of cabozantinib free base: 1.5 fold

## CCCCN(CCCC)CC(O)c1cc(Cl)cc2c1-c1ccc(Cl)cc1/C2=C/c1ccc(Cl)cc1 (stereo not shown) [lumefantrine]
[6]
  oral bioavailability: 4–11%

## C(=C\c1ccccc1)/CN1CCN(C(c2ccccc2)c2ccccc2)CC1.CCCCCCCCCCOS(=O)(=O)O [cinnarizine decyl sulfate]
[7]; rats, SEDDS formulation
  exposure, fold higher than equivalent dose of cinnarizine free base as a suspension in the same SEDDS formulation: ~ 2 fold

## CCC(C)n1ncn(-c2ccc(N3CCN(c4ccc(OCC5COC(Cn6cncn6)(c6ccc(Cl)cc6Cl)O5)cc4)CC3)cc2)c1=O.CCCCC(CC)COC(=O)CC(C(=O)OCC(CC)CCCC)S(=O)(=O)O (stereo not shown) [itraconazole docusate]
[7]; rat, in vivo
  exposure compared with the commercial formulation Sporanox: greater exposure
  exposure, fold higher than an itraconazole suspension of equal dose: ~ 20 fold
